32 compounds from the ASAP Discovery antiviral challenge data (2025) can be followed below.

In brackets after ≈: the same amount, converted by molar mass. Several values for one entry are separate records, joined by “and”; a condition that tells them apart may be missing. Identical values can stand only once.

Settings in the first series: not given
In the case of `CC(C)[C@H](Nc1ncnc2[nH]c(-c3cnn(CC(N)=O)c3)cc12)c1ccc2c(c1)OCCO2` (racemic), the kinetic solubility is 345 µM (≈ 154 µg/mL). Same read-out and setting: in the case of `COCCNC(=O)c1c[nH]c2ncnc(N[C@H](c3ccc4c(c3)S(=O)(=O)CCC4)C(C)C)c12` (racemic) it was 378 µM (≈ 178 µg/mL); in that of `CCNC(=O)c1cc2c(N[C@H](c3ccc4c(c3)OCCO4)C(C)C)ncnc2[nH]1` (racemic), 72 µM (≈ 28.5 µg/mL); in that of `CC(C)[C@H](Nc1ncnc2[nH]c(-c3cnn(C)c3)cc12)c1ccc2c(c1)S(=O)(=O)CCC2` (racemic), 94 µM (≈ 42.4 µg/mL).

Turning to `CC(C)[C@H](Nc1ncnc2[nH]c(-c3cnn(CC(N)=O)c3)cc12)c1ccc2c(n1)OCCO2` (single isomer, unassigned), the solubility (kinetic) was 377 µM and 395 µM.

As for `N#Cc1cc2c(cc1NC(=O)c1cc(F)cc3[nH]ncc13)CNC2`, the kinetic solubility amounted to 193 µM (≈ 62 µg/mL). Still for that read-out and setting: under `CNCc1cc(-c2cc3c(N[C@H](c4ccc5c(c4)S(=O)(=O)NCC5)C(C)C)ncnc3[nH]2)co1` (racemic) stands 372 µM (≈ 179 µg/mL); under `CC(C)[C@H](Nc1ncnc2[nH]c(-c3cnn(CC(N)=O)c3)cc12)c1ccc2c(c1)S(=O)(=O)CCC2` (single isomer, unassigned), 338 µM and 335 µM.

For a further series the following is noted: human; liver_microsomes.
The compound `CNC(=O)c1cc(Cl)ccc1NS(=O)(=O)c1ccc(Oc2ccccc2Cl)cc1` had a microsomal CLint of 106 µL/min/mg. The same measure, in the same setting: under `CC(C)[C@H](Nc1ncnc2[nH]c(-c3cnn(C)c3C#N)cc12)c1ccc2c(c1)S(=O)(=O)CCC2` (single isomer, unassigned) stands 935 µL/min/mg and 516 µL/min/mg; under `CC(C)[C@H](Nc1ncnc2[nH]c(-c3cnn(CC(N)=O)c3)cc12)c1ccc2c(c1)S(=O)(=O)CCC2` (racemic), 116 µL/min/mg. For `CC(C)[C@H](Nc1ncnc2[nH]cc(C(=O)NC3CC3)c12)c1ccc2c(c1)S(=O)(=O)CCC2` (racemic), the microsomal CLint came to 29 µL/min/mg. On the same count and under the same terms, in the case of `CNC(=O)c1c[nH]c2ncnc(N[C@H](c3ccc4c(c3)OCCO4)C(C)C)c12` (racemic) it was 79 µL/min/mg; in that of `CC(C)(C)[C@H](Nc1ncnc2[nH]c(-c3cnn(CC(N)=O)c3)cc12)c1ccc2c(n1)OCCO2` (racemic), 36 µL/min/mg. Still for that read-out and setting: under `CC(C)[C@H](Nc1ncnc2[nH]c(-c3ccc4nnn(C)c4c3)cc12)c1ccc2c(c1)S(=O)(=O)CCC2` (racemic) stands 752 µL/min/mg; under `CC(C)[C@H](Nc1ncnc2[nH]c(-c3cncc(S(C)(=O)=O)c3)cc12)c1ccc2c(c1)S(=O)(=O)CCC2` (racemic), 635 µL/min/mg.

On to `CC(C)(C)[C@H](Nc1ncnc2[nH]c(-c3cnn(CC(N)=O)c3)cc12)c1ccc2c(c1)OCCO2` (single isomer, unassigned), for which the microsomal CLint was 153 µL/min/mg and 100 µL/min/mg.

As to `O=C(/C=C/c1ccccc1)C(=O)N1CCN(CCc2ccccc2)CC1`, the microsomal CLint was determined as 167 µL/min/mg.

Consider `COCCNC(=O)[C@H](Nc1ccc2c(c1)CNC2)c1cc(Cl)cc(C2CC2)c1` (single isomer, unassigned), for which the microsomal CLint stood at 19.7 µL/min/mg.

`CNC(=O)c1cc2c(N[C@H](c3ccc4c(c3)S(=O)(=O)CCC4)C(C)C)ncnc2[nH]1` (racemic): the microsomal CLint is 77 µL/min/mg. The same measure, in the same setting: in the case of `CC(C)[C@H](Nc1ncnc2[nH]c(-c3cnn(C)c3)cc12)c1ccc2c(c1)S(=O)(=O)CCC2` (single isomer, unassigned) it was 169 µL/min/mg and 405 µL/min/mg; in that of `O=C(Nc1ccc2c(c1)CNC2)c1cc(F)cc(-c2cn[nH]c2)c1`, 36.3 µL/min/mg; in that of `NCc1cccc(NC(=O)[C@@H](NC(=O)OCc2ccccc2)c2ccc(OCc3ccccc3)cc2)c1`, 11 µL/min/mg.

With `CNC(=O)c1c[nH]c2ncnc(N[C@H](c3ccc4c(c3)S(=O)(=O)CCC4)C(C)C)c12` (racemic), the microsomal CLint came out at 131 µL/min/mg. This microsomal CLint lies about 12-fold higher than the previous one. The same measure, in the same setting: in the case of `CNC(=O)c1cc2c(N[C@H](c3ccc4c(c3)NC(=O)CO4)C(C)C)ncnc2[nH]1` (racemic) it was 52 µL/min/mg; in that of `O=C(Nc1ccc2c(c1)CNC2)c1cccc2[nH]c(C(F)(F)F)cc12`, 14.1 µL/min/mg. `Cn1ncc(-c2cc3c(N[C@H](c4ccc5c(n4)OCCO5)C(C)(C)C)ncnc3[nH]2)c1C#N` (single isomer, unassigned): the microsomal CLint was determined as 283 µL/min/mg.

For the compound `CC(C)(C)[C@H](Nc1ncnc2[nH]c(-c3cnn(CC(N)=O)c3)cc12)c1ccc2c(c1)OCCO2` (racemic), the microsomal CLint worked out at 133 µL/min/mg. On the same count and under the same terms, under `CN(c1ccc2c(c1)CNC2)[C@H](C(=O)NCC(F)F)c1cc(Cl)cc(C2CC2)c1` (racemic) stands 17.1 µL/min/mg. Still for that read-out and setting: in the case of `CC(C)[C@H](Nc1ncnc2[nH]c(-c3cnn(C)c3C#N)cc12)c1ccc2c(c1)S(=O)(=O)CCC2` (racemic) it was 490 µL/min/mg; in that of `Cn1ncc(-c2cc3c(N[C@H](c4ccc5c(c4)OCCO5)C(C)(C)C)ncnc3[nH]2)c1C#N` (racemic), 85 µL/min/mg. `CC(C)[C@H](Nc1ncnc2[nH]c(-c3ccc4cncn4c3)cc12)c1ccc2c(c1)S(=O)(=O)CCC2` (racemic) had a microsomal CLint of 210 µL/min/mg. Compound `CC(C)[C@H](Nc1ncnc2[nH]c(-c3cnn(CC(N)=O)c3)cc12)c1ccc2c(c1)OCCO2` (racemic) returned a microsomal CLint of 99 µL/min/mg. Same read-out and setting: under `COCCNC(=O)c1c[nH]c2ncnc(N[C@H](c3ccc4c(c3)S(=O)(=O)CCC4)C(C)C)c12` (racemic) stands 540 µL/min/mg; under `CCNC(=O)c1cc2c(N[C@H](c3ccc4c(c3)OCCO4)C(C)C)ncnc2[nH]1` (racemic), 85 µL/min/mg; under `CC(C)[C@H](Nc1ncnc2[nH]c(-c3cnn(C)c3)cc12)c1ccc2c(c1)S(=O)(=O)CCC2` (racemic), 141 µL/min/mg.

As for `CC(C)[C@H](Nc1ncnc2[nH]c(-c3cnn(CC(N)=O)c3)cc12)c1ccc2c(n1)OCCO2` (single isomer, unassigned), the microsomal CLint was 12 µL/min/mg and 18 µL/min/mg. `N#Cc1cc2c(cc1NC(=O)c1cc(F)cc3[nH]ncc13)CNC2` came in with a microsomal CLint of 16.7 µL/min/mg. In the case of `CNCc1cc(-c2cc3c(N[C@H](c4ccc5c(c4)S(=O)(=O)NCC5)C(C)C)ncnc3[nH]2)co1` (racemic), the microsomal CLint was 46 µL/min/mg. Compared with the last compound, the microsomal CLint is about 2.8-fold higher.

On to `CC(C)[C@H](Nc1ncnc2[nH]c(-c3cnn(CC(N)=O)c3)cc12)c1ccc2c(c1)S(=O)(=O)CCC2` (single isomer, unassigned), for which the microsomal CLint was 240 µL/min/mg and 115 µL/min/mg.

The kinetic solubility is the concentration staying in solution when a stock, usually in DMSO, is diluted into the medium. The microsomal CLint is the capacity of the preparation to metabolise the compound, expressed as a volume cleared per time. A higher microsomal CLint goes with rapid turnover.
